Measured values published in patent US11548880B2, “Modulators of hemoglobin” (Global Blood Therapeutics, Inc., priority 2018, dated 2023).

Assays:
Rat PK, oral gavage = type: in vivo, Sprague-Dawley rats; conditions: male, Sprague-Dawley, rat, po, 10 mg/kg, oral gavage 10 mg/kg; for blood plasma ratio: whole blood and plasma, AUClast in blood divided by AUClast in plasma, rats; for half-life: whole blood, fasted male Sprague-Dawley rats, 0.5% methylcellulose suspension, blood
Protocol: Rat PK: A group of fasted male Sprague-Dawley rats were dosed via oral gavage at 10 mg/kg with test articles formulated in 0.5% methylcellulose suspension. Blood samples were collected through jugular vein at pre-selected time points. Blood samples were prepared by protein precipitation with ACN, vortexed and then centrifuged before supernatants were transferred for bioanalysis. Test article concentrations were measured by HPLC-MS-MS. Pharmacokinetic parameters were calculated using non-compartment analysis. The blood/plasma ratio was calculated by dividing the AUClast (i.e., the area under the curve calculated from t=0 to the last detectable time-point) in blood by the AUClast in plasma. The T1/2 was calculated via a linear regression of the terminal phase of the blood-time concentration profile.

PXR nuclear receptor = target: T1, PXR nuclear receptor (Homo sapiens, UniProt O75469); experiment: CYP (PXR) assay: PXR nuclear receptor activation in DPX2 reporter cells; type: cell-based; conditions: fold PXR activation, 24 h
T1 construct: expressed in transfected cells; host or cells: DPX2 (stably transfected human hepatoma cells)
T1 sequence (O75469 1-434): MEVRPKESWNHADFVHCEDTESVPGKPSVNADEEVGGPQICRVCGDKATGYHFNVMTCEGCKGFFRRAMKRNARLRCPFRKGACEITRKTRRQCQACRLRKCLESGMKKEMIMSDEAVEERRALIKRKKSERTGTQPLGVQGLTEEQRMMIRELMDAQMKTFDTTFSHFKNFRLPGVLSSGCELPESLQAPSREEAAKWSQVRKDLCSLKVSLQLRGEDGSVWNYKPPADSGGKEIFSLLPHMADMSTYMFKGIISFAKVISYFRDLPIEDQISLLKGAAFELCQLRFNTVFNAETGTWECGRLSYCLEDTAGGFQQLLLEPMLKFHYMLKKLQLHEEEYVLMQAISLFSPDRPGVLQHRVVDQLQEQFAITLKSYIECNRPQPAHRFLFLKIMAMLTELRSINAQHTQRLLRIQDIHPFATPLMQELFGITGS
Protocol: CYP (PXR) Assay: PXR nuclear receptor activation utilizing stably-transfected human hepatoma cell lines (DPX2) were seeded in a 96-well plate. Twenty-four hours after seeding, the cells were treated with selected concentrations of compounds in duplicate wells, and cells then returned to the incubator for an additional 24 h. At the end of this incubation period, the number of viable cells/well were determined using Promega's Cell Titer Fluor cytotoxicity assay. Subsequently, Promega's ONE-Glo were added to the same wells and reporter gene activity were assessed. The average luminescent units for each compound dose of two replicates were divided by the average for the DMSO solvent control to determine the fold-induction. In accordance with industry standard, a threshold of ≥2.5-fold was used to flag compounds that have in vivo CYP induction risk.

Hb = target: T2, Hb (Homo sapiens, UniProt P68871+P69905); experiment: Whole blood assay: oxygen equilibrium curves (Hemox Analyzer), change in p50; type: cell-based; conditions: whole blood incubated 1 h at 37° C., equimolar ratio of hemoglobin to compound
T2 construct: from tissue; host or cells: whole blood
Protocol: Whole blood assay: Oxygen equilibrium curves (OECs) were collected using a TCS Hemox Analyzer (TCS Scientific Company, New Hope, Pa., USA) to measure changes in the binding affinity of O2 to Hb. Whole blood was incubated for 1 h at 37° C. with the indicated compounds in an equimolar ratio of hemoglobin to compound and diluted into TES (2-[[1,3-dihydroxy-2-(hydroxymethyl)propan-2-yl]amino]ethanesulfonic acid)/saline buffer prior to measurements. For example, for whole blood at 20% hematocrit [Hct], which corresponds to 1 mM Hb, a compound concentration of 1 mM was used (for example, for compounds 1-5), and the incubated sample diluted 50- to 100-fold. The concentration for compounds 6-44 (Diastereomers 1 and 2) varied but remained in equimolar ratio to hemoglobin. The diluted samples were then oxygenated with compressed air within the Hemox Analyzer and the OECs were collected during deoxygenation as previously described (Guarnone et al., Haematologica, 1995, 80, 426-430). p 50 (partial pressure of O2 at which Hb is 50% saturated with O2) values were obtained using a non-linear regression analysis. Percentage change in p50 [Δp50(%)] was calculated as follows: Δp50(%)=[(p50 of control)−p50 with compound)/p50 control]×100.

T2 sequence (P69905 2-142 limits assumed): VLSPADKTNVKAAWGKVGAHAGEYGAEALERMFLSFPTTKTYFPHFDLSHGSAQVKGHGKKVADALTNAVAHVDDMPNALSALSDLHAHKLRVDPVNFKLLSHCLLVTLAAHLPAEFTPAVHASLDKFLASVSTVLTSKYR
T2 sequence (P68871 2-147 limits assumed): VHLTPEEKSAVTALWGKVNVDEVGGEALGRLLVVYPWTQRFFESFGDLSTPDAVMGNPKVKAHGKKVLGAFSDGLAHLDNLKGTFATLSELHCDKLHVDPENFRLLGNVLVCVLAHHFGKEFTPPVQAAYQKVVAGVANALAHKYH

| Structure (SMILES) | blood plasma ratio (Rat PK, oral gavage) | half-life (Rat PK, oral gavage) [h] | CYP (PXR) Flag (PXR nuclear receptor; at 30 μM) | Delta-p50 (%) (Hb) | CYP (PXR) Flag (PXR nuclear receptor; at 25 μM) |
| --- | --- | --- | --- | --- | --- |
| O=Cc1c(O)cccc1OCC1CSCCN1C(=O)c1cccnc1CO (single isomer, unassigned) [Compound 13 (Enantiomer 1), 2-hydroxy-6-((4-(2-(hydroxymethyl)nicotinoyl)-thiomorpholin-3-yl)-methoxy)benzaldehyde] | 230 | 88 | N (PXR activation < 2.5-fold) | 80.6 | – |
| O=Cc1c(O)cccc1OC[C@@H]1CCCCN1C(=O)c1cccnc1CCO [Compound 1, (S)-2-hydroxy-6-((1-(2-(2-hydroxyethyl)nicotinoyl)piperidin-2-yl)methoxy)benzaldehyde] | 162 | 58 | – | 77.3 | N^1 (PXR activation < 2.5-fold) |
| O=Cc1c(O)cccc1OC[C@@H]1COCCN1C(=O)c1cccnc1CCO [Compound 8, (S)-2-hydroxy-6-((4-(2-(2-hydroxyethyl)nicotinoyl)morpholin-3-yl)methoxy)benzaldehyde] | 105 | 69 | N (PXR activation < 2.5-fold) | 79.8 | – |
| O=Cc1c(O)cccc1OC[C@@H]1COCCN1C(=O)c1cccnc1CO [Compound 12, (S)-2-hydroxy-6-((4-(2-(hydroxymethyl)nicotinoyl)morpholin-3-yl)methoxy)benzaldehyde] | 131 | 58 | N (PXR activation < 2.5-fold) | 76.7 | – |
| O=Cc1c(O)cccc1OC[C@@H]1CCCCN1C(=O)c1cccnc1 [Reference Compound A, reference compound] | 75 | 29 | Y (PXR activation ≥ 2.5-fold) | – | – |
| O=Cc1c(O)cccc1OC[C@@H]1COCCN1C(=O)c1ccccc1 [Reference Compound B, reference compound] | 98 | 29.8 | Y (PXR activation ≥ 2.5-fold) | – | – |
| Cc1ncccc1C(=O)N1CCCC[C@H]1COc1cccc(O)c1C=O [Reference Compound C, reference compound] | – | – | – | – | Y^1 (PXR activation ≥ 2.5-fold) |
